Assay results from US7205150B2, “Transgenic plants over-expressing plant ADP-glucose pyrophosphatase” (Universidad Publica de Navarra, priority 2000, dated 2007).
“Also recorded” adds a separate entry of the source.

These compounds were tested on AGPPase (soluble and particulate isoforms) (assay: AGPPase enzymatic assay (two-step spectrophotometric determination of G1P produced from ADPG)). Conditions: not given.
Format: biochemical, barley (Hordeum vulgare), tomato (Lycopersicon sculentum)

Hydrolysis / recognition as substrate by AGPPase	Inhibition of AGPPase	Compound	Effect of typical phosphodiesterase inhibitors (reducing and chelating agents) on AGPPase activity
recognises		Nc1nc2c(ncn2[C@@H]2O[C@H](COP(=O)(O)OP(=O)(O)O[C@H]3O[C@H](CO)[C@@H](O)[C@H](O)[C@@H]3O)[C@@H](O)[C@H]2O)c(=O)[nH]1 [GDP-mannose]	
recognise		Nc1nc2c(ncn2[C@@H]2O[C@H](COP(=O)(O)OP(=O)(O)O[C@H]3O[C@H](CO)[C@@H](O)[C@H](O)[C@H]3O)[C@@H](O)[C@H]2O)c(=O)[nH]1 [GDP-glucose]	
	inhibited	Nc1ncnc2c1ncn2[C@@H]1O[C@H](COP(=O)(O)OP(=O)(O)OP(=O)(O)O)[C@@H](O)[C@H]1O [ATP]	
	inhibited	Nc1ncnc2c1ncn2[C@@H]1O[C@H](COP(=O)(O)OP(=O)(O)O)[C@@H](O)[C@H]1O [ADP]	
recognises		Nc1ncnc2c1ncn2[C@@H]1O[C@H](COP(=O)(O)OP(=O)(O)O[C@H]2O[C@H](CO)[C@@H](O)[C@H](O)[C@@H]2O)[C@@H](O)[C@H]1O [ADP-mannose]	

More lines, now with the values behind:

Compound	Hydrolysis / recognition as substrate by AGPPase	Inhibition of AGPPase	Effect of typical phosphodiesterase inhibitors (reducing and chelating agents) on AGPPase activity
Nc1ncnc2c1ncn2[C@@H]1O[C@H](COP(=O)(O)O)[C@@H](O)[C@H]1O [AMP]	do not hydrolyse	inhibited	
Nc1ncnc2c1ncn2[C@@H]1O[C@H](COP(=O)(O)OP(=O)(O)O[C@H]2O[C@H](CO)[C@@H](O)[C@H](O)[C@H]2O)[C@@H](O)[C@H]1O [ADPG, ADPglucose]	catalyse the hydrolysis; also recorded: preferred substrates		
Nc1ncnc2c1ncn2[C@@H]1O[C@H](COP(=O)(O)OS(=O)(=O)O)[C@@H](O)[C@H]1O [APS, adenosine 5′phosphosulphate]	recognises; also recorded: catalyse the hydrolysis; also recorded: preferred substrates		
arsenate		strongly inhibited	
O=[N+]([O-])c1ccc(OP(=O)(O)Oc2ccc([N+](=O)[O-])cc2)cc1 [bis-PNPP, bis-paranitrophenylphosphate]	recognise		
OCCS [β-mercaptoethanol]			not affected
O=C(O)[C@H](O)COP(=O)(O)O [3-phosphoglycerate]	do not hydrolyse	inhibited	
O=C[C@H](O)[C@@H](O)[C@H](O)[C@H](O)COP(=O)(O)O [G6P, glucose-6-phosphate]	do not hydrolyse		
Nc1ncnc2c1ncn2[C@@H]1O[C@H](COP(=O)(O)OS(=O)(=O)O)[C@@H](OP(=O)(O)O)[C@H]1O [PAPS, 3′-phosphoadenosine 5′-phosphosulphate]	recognises; also recorded: catalyse the hydrolysis		
[O]=[Mo](=[O])([O-])[O-] [molybdate]		strongly inhibited	

Same assay, conditions: Km of ADP-glucose relative to this substrate

Km / affinity compared with ADP-glucose	Compound
similar	Nc1ncnc2c1ncn2[C@@H]1O[C@H](COP(=O)(O)OS(=O)(=O)O)[C@@H](O)[C@H]1O [APS, adenosine 5′phosphosulphate]
four of five times lower	Nc1ncnc2c1ncn2[C@@H]1O[C@H](COP(=O)(O)OP(=O)(O)OC[C@H]2OC(O)[C@H](O)[C@@H]2O)[C@@H](O)[C@H]1O (some centres unmarked) [ADP-ribose]

Same assay, conditions: read-out: Michaelis-Menten constant (Km)

Compound	Km
Nc1ncnc2c1ncn2[C@@H]1O[C@H](COP(=O)(O)OP(=O)(O)O[C@H]2O[C@H](CO)[C@@H](O)[C@H](O)[C@H]2O)[C@@H](O)[C@H]1O [ADPG, ADPglucose]	500 µM
